Measured values taken from patent publication US12077503B2, “Substituted cyclic amides and their use as herbicides” (FMC CORPORATION, priority 2015, dated 2024).

Tests used:
Format in all cases: in vivo
corn (Zea mays) [1] = assay: Test G Pre-Emergence Protocol; conditions: Zea mays, pre-emergence, 312 h, evaluated after 13 days
Procedure, shortened: (§1)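 Seeds were sown in standard soil and kept one day in a glasshouse (24/16° C day/night, 14 h light, 65% humidity), then sprayed with compound in acetone/water (50:50) containing 0.5% Tween 20 at 15.625, 62.5 or 250 g/ha. Damage was scored after 13 days (0 = none, 100 = total).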

[2] = tested on: ivy-leaved morning glory (Ipomoea hederacea); assay: Test G Pre-Emergence Protocol; conditions: Ipomoea, pre-emergence, 312 h, evaluated after 13 days
Procedure, shortened: as §1

[3] = tested on: redroot pigweed (Amaranthus retroflexus); assay: Test G Pre-Emergence Protocol; conditions: Amaranthus retroflexus, pre-emergence, 312 h, evaluated after 13 days
Procedure, shortened: as §1

[4] = tested on: giant foxtail (Setaria faberi); assay: Test G Pre-Emergence Protocol; conditions: Setaria faberi, pre-emergence, 312 h, evaluated after 13 days
Procedure, shortened: as §1

[5] = tested on: barnyardgrass (Echinochloa crus-galli); assay: Test G Pre-Emergence Protocol; conditions: Echinochloa crus-galli, pre-emergence, 312 h, evaluated after 13 days
Procedure, shortened: as §1

[6] = tested on: velvetleaf (Abutilon theophrasti); assay: Test G Pre-Emergence Protocol; conditions: Abutilon theophrasti, pre-emergence, 312 h, evaluated after 13 days
Procedure, shortened: as §1

corn (Zea mays) [7] = assay: Test G Post-Emergence Protocol; conditions: Zea mays, post-emergence, 312 h, read-out: Corn damage rating
Procedure, shortened: (§2)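 Values are percent visual injury at 13 days after treatment (0 none, 100 total). Treatment was a post-emergence spray at 15.625, 62.5 or 250 g/ha on 8-day-old pot plants kept at 24/16 °C.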

[8] = tested on: ivy-leaved morning glory (Ipomoea hederacea); assay: Test G Post-Emergence Protocol; conditions: Ipomoea, post-emergence, 312 h, read-out: Morningglory, Ivy-leaved damage rating
Procedure, shortened: as §2

[9] = tested on: redroot pigweed (Amaranthus retroflexus); assay: Test G Post-Emergence Protocol; conditions: Amaranthus retroflexus, post-emergence, 312 h, read-out: Pigweed, Redroot damage rating
Procedure, shortened: as §2

[10] = tested on: giant foxtail (Setaria faberi); assay: Test G Post-Emergence Protocol; conditions: Setaria faberi, post-emergence, 312 h, read-out: Foxtail, Giant damage rating
Procedure, shortened: as §2

[11] = tested on: barnyardgrass (Echinochloa crus-galli); assay: Test G Post-Emergence Protocol; conditions: Echinochloa crus-galli, post-emergence, 312 h, read-out: Barnyardgrass damage rating
Procedure, shortened: as §2

[12] = tested on: velvetleaf (Abutilon theophrasti); assay: Test G Post-Emergence Protocol; conditions: Abutilon theophrasti, post-emergence, 312 h, read-out: Velvetleaf damage rating
Procedure, shortened: as §2

[13] = 15.625 g ai/ha, evaluated after 13 days (100=total damage to plant; 0=no damage to plant)
[14] = 62.5 g ai/ha, evaluated after 13 days, 100=total damage to plant, 0=no damage to plant
[15] = 250 g ai/ha, evaluated after 13 days, 100=total damage to plant, 0=no damage to plant

CN1C[C@H](c2ccc(C(F)(F)F)cc2)[C@@H](C(=O)Nc2cccc(Cl)c2S(C)(=O)=O)C1=O (racemic) [Compound 1661]
plant injury at 15.625 g/ha (corn (Zea mays) [1]; 15.625 g ai/ha, read-out: Corn damage rating (100=total damage to plant; 0=no damage to plant)): 0%
plant injury at 62.5 g/ha (corn (Zea mays) [1]; 62.5 g ai/ha, 100=total damage to plant, 0=no damage to plant, read-out: Corn damage rating): 0%
plant injury at 250 g/ha (corn (Zea mays) [1]; 250 g ai/ha, read-out: Corn damage rating (100=total damage to plant; 0=no damage to plant)): 10%
pest or weed control at 15.625 g/ha ([2]; 15.625 g ai/ha, read-out: Morningglory, Ivy-leaved damage rating (100=total damage to plant; 0=no damage to plant)): 0%
pest or weed control at 62.5 g/ha ([2]; 62.5 g ai/ha, 100=total damage to plant, 0=no damage to plant, read-out: Morningglory, Ivy-leaved damage rating): 0%
pest or weed control at 250 g/ha ([2]; 250 g ai/ha, read-out: Morningglory, Ivy-leaved damage rating (100=total damage to plant; 0=no damage to plant)): 10%
pest or weed control at 15.625 g/ha ([3]; 15.625 g ai/ha, read-out: Pigweed, Redroot damage rating (100=total damage to plant; 0=no damage to plant)): 0%
pest or weed control at 62.5 g/ha ([3]; 62.5 g ai/ha, 100=total damage to plant, 0=no damage to plant, read-out: Pigweed, Redroot damage rating): 0%
pest or weed control at 250 g/ha ([3]; 250 g ai/ha, read-out: Pigweed, Redroot damage rating (100=total damage to plant; 0=no damage to plant)): 20%
pest or weed control at 15.625 g/ha ([4]; 15.625 g ai/ha, read-out: Foxtail, Giant damage rating (100=total damage to plant; 0=no damage to plant)): 0%
pest or weed control at 62.5 g/ha ([4]; 62.5 g ai/ha, 100=total damage to plant, 0=no damage to plant, read-out: Foxtail, Giant damage rating): 50%
pest or weed control at 250 g/ha ([4]; 250 g ai/ha, read-out: Foxtail, Giant damage rating (100=total damage to plant; 0=no damage to plant)): 80%
pest or weed control at 15.625 g/ha ([5]; 15.625 g ai/ha, read-out: Barnyardgrass damage rating (100=total damage to plant; 0=no damage to plant)): 0%
pest or weed control at 62.5 g/ha ([5]; 62.5 g ai/ha, 100=total damage to plant, 0=no damage to plant, read-out: Barnyardgrass damage rating): 0%
pest or weed control at 250 g/ha ([5]; 250 g ai/ha, read-out: Barnyardgrass damage rating (100=total damage to plant; 0=no damage to plant)): 0%
pest or weed control at 15.625 g/ha ([6]; 15.625 g ai/ha, read-out: Velvetleaf damage rating (100=total damage to plant; 0=no damage to plant)): 0%
pest or weed control at 62.5 g/ha ([6]; 62.5 g ai/ha, 100=total damage to plant, 0=no damage to plant, read-out: Velvetleaf damage rating): 0%
pest or weed control at 250 g/ha ([6]; 250 g ai/ha, read-out: Velvetleaf damage rating (100=total damage to plant; 0=no damage to plant)): 0%
plant injury at 15.625 g/ha (corn (Zea mays) [7]; [13]): 0%
plant injury at 62.5 g/ha (corn (Zea mays) [7]; [14]): 0%
plant injury at 250 g/ha (corn (Zea mays) [7]; [15]): 0%
pest or weed control at 15.625 g/ha [8, 13]: 0%
pest or weed control at 62.5 g/ha [8, 14]: 0%
pest or weed control at 250 g/ha [8, 15]: 0%
pest or weed control at 15.625 g/ha [9, 13]: 0%
pest or weed control at 62.5 g/ha [9, 14]: 20%
pest or weed control at 250 g/ha [9, 15]: 40%
pest or weed control at 15.625 g/ha [10, 13]: 0%
pest or weed control at 62.5 g/ha [10, 14]: 60%
pest or weed control at 250 g/ha [10, 15]: 60%
pest or weed control at 15.625 g/ha [11, 13]: 0%
pest or weed control at 62.5 g/ha [11, 14]: 20%
pest or weed control at 250 g/ha [11, 15]: 10%
pest or weed control at 15.625 g/ha [12, 13]: 0%
pest or weed control at 62.5 g/ha [12, 14]: 0%
pest or weed control at 250 g/ha [12, 15]: 10%
